{
  "source": "patent US20090098209A1",
  "about": "“PHARMACEUTICAL CO[…]-SOLUBLE DERIVATIVES OF PROPOFOL AND METHODS OF ADMINISTERING SAME VIA PULMONARY ADMINISTRATION” (UNIVERSITY OF KANSAS, priority 2007, published 2009)",
  "key": {"[1]": {"test": "Study 1: pulmonary delivery by nebulizer and facemask, plasma propofol and sedation", "type": "in vivo", "details": "one male beagle dog, inhalation of 3 mL of 250 mg/mL aqueous solution over approximately 10 min", "experimental": "(§1) A preliminary study was conducted to assess the conversion of O-phosphonooxymethyl propofol disodium salt to the pharmacologically active drug propofol following pulmonary delivery. A male beagle dog was fasted overnight prior to the study. O-phosphonooxymethyl propofol disodium salt was dissolved in water (250 mg/mL). 3-mL of the O-phosphonooxymethyl propofol disodium salt solution was delivered over approximately 10 min to the dog via inhalation through a nebulizer connected to a facemask that was placed over the dog's muzzle. The actual dose of O-phosphonooxymethyl propofol disodium salt delivered to the dog is less than the dose nebulized due to vapor loss during exhalation. Two mL blood samples were collected via a catheter placed in the cephalic vein prior to the study. Samples were collected for 1.5 hours post-dose at 5, 10, 20, 30, 40, 50, 60 and 90 minutes after initiation of delivery by inhalation. The concentration of propofol in the blood samples was determined using HPLC with fluorescence detection.\nThese finding are significant, as it is known that humans are more susceptible to the affects of propofol than dogs. Therefore, the onset of action would be very rapid in humans."}, "[2]": {"test": "Study 2: pulmonary delivery by nebulizer for a defined time (10 min), plasma propofol and sedation", "type": "in vivo", "details": "three male beagle dogs, 250 mg/mL aqueous solution nebulized for 10 min", "experimental": "as §1, with “A second” for “A preliminary”, “delivery. The study design was essentially the same as Study 1 above except that the O-phosphonooxymethyl propofol disodium salt solution was nebulized for a defined period of time (10 min) instead of to complete nebulization of the solution. Three” for “delivery. A”, “beagle dogs” for “beagle dog”, “mg/mL). The” for “mg/mL). 3-mL of the”, “delivered for” for “delivered over approximately”\nThese finding are significant, as it is known that humans are more susceptible to the effects of propofol than dogs. […]"}, "[3]": {"details": "sample at 5 minutes post dose initiation, HPLC with fluorescence detection"}},
  "data": [
    {"smiles": "CC(C)c1cccc(C(C)C)c1OCOP(=O)([O-])[O-].[Na+].[Na+]", "note": "[O-phosphonooxymethyl propofol disodium salt]", "values": [
      {"measurement": "signs of sedation, time after the completion of the inhaled dose", "setting": "[1]", "result": "approximately 15 minutes"},
      {"measurement": "concentration of propofol in the plasma, first blood sample", "setting": "[1]; [3]", "result": "significant concentration of propofol in the plasma"},
      {"measurement": "signs of sedation, time after the completion of the inhaled dose", "setting": "[2]", "result": "10 to 15", "unit": "min"},
      {"measurement": "concentration of propofol in the plasma, first blood sample", "setting": "[2]; [3]", "result": "significant concentration of propofol in the plasma"}
    ]}
  ]
}
